Experimental data reported in ChEMBL document CHEMBL1201862, “PubChem BioAssay data set” (2004).
The source made the active and inactive calls. Cut-off read from the data, not from the text of the source, for most assays here: actives have a measured EC50 and inactives only a lower limit.

Key:
[1] = target: T1, Sentrin-specific protease 6 (Homo sapiens, UniProt Q9GZR1); assay: SAR Analysis of small molecule inhibitors of Sentrin-specific protease 6 (SENP6) using a Luminescent assay. [Related pubchem assays (depositor defined):AID2582, AID2599]; type: functional
T1 sequence (Q9GZR1 whole entry): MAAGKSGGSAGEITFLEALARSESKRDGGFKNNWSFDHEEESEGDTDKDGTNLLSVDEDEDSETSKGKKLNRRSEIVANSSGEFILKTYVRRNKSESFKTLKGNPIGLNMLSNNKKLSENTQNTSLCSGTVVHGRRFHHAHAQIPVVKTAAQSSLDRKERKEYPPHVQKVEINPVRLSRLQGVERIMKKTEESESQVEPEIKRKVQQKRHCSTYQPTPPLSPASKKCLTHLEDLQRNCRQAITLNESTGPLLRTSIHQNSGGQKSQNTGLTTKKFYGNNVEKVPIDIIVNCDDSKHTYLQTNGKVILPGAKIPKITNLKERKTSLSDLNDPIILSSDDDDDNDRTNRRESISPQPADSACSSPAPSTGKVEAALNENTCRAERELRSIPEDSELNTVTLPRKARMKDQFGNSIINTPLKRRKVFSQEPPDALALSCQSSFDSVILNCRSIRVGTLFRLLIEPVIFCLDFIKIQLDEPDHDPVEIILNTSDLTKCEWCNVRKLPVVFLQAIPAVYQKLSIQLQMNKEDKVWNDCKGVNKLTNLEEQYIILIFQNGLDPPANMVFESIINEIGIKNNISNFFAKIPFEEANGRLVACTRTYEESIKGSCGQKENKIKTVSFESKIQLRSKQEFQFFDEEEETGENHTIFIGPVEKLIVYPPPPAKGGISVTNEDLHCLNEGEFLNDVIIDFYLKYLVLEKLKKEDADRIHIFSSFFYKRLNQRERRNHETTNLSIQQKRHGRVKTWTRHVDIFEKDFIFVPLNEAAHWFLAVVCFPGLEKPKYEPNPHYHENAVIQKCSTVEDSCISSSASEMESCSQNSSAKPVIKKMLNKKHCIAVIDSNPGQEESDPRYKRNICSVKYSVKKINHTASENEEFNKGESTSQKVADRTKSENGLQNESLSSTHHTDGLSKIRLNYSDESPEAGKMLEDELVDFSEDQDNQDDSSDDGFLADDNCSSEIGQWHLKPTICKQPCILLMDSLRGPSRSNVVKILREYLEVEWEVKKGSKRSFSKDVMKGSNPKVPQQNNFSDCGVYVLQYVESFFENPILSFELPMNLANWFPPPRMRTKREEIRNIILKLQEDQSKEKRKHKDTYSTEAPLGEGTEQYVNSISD

[2] = target: T2, Sentrin-specific protease 7 (Homo sapiens, UniProt Q9BQF6); assay: inhibition of human SENP7 cleavage activity – biochemical, luminescence, SAR follow-up (AID 504497); type: functional
T2 sequence (Q9BQF6 whole entry): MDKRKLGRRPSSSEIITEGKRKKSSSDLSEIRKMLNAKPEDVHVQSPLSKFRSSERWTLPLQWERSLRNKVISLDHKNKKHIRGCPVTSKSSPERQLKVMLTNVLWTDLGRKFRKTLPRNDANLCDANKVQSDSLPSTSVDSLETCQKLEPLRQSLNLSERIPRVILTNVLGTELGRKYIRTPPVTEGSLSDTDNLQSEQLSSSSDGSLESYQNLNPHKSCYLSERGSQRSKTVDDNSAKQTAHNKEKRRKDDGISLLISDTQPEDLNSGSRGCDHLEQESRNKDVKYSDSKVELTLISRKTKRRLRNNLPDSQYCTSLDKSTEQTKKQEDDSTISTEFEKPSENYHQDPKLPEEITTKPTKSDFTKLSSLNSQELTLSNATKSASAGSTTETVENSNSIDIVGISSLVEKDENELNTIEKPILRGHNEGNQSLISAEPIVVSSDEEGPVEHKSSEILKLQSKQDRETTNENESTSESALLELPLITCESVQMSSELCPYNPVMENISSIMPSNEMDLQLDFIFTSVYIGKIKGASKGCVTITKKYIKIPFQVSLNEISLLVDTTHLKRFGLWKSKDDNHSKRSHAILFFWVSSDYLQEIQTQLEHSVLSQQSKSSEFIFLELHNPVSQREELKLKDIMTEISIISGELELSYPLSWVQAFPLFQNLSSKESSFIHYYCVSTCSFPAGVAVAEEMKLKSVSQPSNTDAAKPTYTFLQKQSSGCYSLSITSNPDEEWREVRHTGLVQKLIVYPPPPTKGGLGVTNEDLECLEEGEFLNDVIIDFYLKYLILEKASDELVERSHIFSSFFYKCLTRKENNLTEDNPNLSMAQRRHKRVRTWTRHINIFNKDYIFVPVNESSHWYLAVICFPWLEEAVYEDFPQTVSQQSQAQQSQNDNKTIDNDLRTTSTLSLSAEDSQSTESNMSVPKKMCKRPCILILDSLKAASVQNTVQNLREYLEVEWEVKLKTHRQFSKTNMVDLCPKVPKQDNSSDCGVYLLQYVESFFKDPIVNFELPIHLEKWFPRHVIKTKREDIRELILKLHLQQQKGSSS

[3] = target: T3, Caspase-3 (Homo sapiens, UniProt P42574); assay: SAR Analysis of small molecule inhibitors of Sentrin-specific proteases (SENPs) using a Caspase-3 Selectivity assay. [Related pubchem assays (depositor defined):AID2540, AID2599, AID434973, AID489001]; type: functional
T3 sequence (P42574 whole entry): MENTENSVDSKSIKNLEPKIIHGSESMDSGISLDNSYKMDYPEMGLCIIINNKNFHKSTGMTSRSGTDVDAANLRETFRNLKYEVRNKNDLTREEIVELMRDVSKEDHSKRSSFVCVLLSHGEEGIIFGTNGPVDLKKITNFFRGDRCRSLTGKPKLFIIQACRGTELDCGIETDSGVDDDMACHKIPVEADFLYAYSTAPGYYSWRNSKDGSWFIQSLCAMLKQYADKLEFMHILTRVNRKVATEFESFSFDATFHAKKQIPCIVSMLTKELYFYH

[4] = target: T4, Sentrin-specific protease 8 (Homo sapiens, UniProt Q96LD8); assay: inhibition of human SENP8 cleavage activity – biochemical, luminescence, SAR follow-up (AID 504501); type: functional
T4 sequence (Q96LD8 whole entry): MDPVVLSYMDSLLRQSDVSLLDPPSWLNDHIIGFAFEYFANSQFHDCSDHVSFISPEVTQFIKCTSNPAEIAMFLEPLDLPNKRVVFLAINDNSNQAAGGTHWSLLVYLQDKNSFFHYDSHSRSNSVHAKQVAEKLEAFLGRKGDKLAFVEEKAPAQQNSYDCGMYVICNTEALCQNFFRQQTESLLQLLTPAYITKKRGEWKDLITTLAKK

[5] = target: Sphingosine 1-phosphate receptor 2 (Homo sapiens, UniProt O95136); assay: Late-stage fluorescence-based dose-response cell-based counterscreen assay to identify agonists of the Sphingosine 1-Phosphate Receptor 3 (S1P3): Sphingosine 1-Phosphate Receptor 2 (S1P2) agonist assay.; type: functional
Chain of Sphingosine 1-phosphate receptor 2 (O95136 whole entry): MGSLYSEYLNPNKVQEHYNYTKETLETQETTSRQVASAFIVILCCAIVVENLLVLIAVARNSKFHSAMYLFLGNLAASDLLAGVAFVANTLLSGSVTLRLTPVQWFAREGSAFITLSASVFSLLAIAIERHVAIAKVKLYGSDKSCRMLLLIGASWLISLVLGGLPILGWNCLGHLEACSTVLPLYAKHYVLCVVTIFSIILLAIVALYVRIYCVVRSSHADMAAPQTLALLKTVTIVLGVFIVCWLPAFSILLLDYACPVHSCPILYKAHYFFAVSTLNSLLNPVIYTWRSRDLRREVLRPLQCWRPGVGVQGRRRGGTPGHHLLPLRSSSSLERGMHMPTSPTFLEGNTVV

[6] = target: T5, Sphingosine 1-phosphate receptor 4 (Homo sapiens, UniProt O95977); assay: Late-stage fluorescence-based dose-response cell-based counterscreen assay to identify agonists of the Sphingosine 1-Phosphate Receptor 3 (S1P3): Sphingosine 1-Phosphate Receptor 4 (S1P4) agonist assay.; type: functional
T5 sequence (O95977 whole entry): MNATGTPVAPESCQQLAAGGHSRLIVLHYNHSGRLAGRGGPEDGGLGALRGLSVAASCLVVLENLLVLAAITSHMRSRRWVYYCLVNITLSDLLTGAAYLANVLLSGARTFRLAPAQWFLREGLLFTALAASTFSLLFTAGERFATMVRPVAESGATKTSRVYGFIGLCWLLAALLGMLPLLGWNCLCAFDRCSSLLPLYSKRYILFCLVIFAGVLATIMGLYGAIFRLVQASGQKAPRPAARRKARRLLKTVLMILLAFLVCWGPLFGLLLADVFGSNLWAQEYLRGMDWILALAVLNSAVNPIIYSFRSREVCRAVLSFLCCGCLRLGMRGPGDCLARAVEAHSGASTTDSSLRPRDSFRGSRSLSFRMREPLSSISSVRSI

[7] = target: Aurora kinase A (Homo sapiens, UniProt O14965); type: functional;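 note: value from the Navigating the Kinome kinase panel profiling, panel entry STK6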
Chain of Aurora kinase A (O14965 whole entry): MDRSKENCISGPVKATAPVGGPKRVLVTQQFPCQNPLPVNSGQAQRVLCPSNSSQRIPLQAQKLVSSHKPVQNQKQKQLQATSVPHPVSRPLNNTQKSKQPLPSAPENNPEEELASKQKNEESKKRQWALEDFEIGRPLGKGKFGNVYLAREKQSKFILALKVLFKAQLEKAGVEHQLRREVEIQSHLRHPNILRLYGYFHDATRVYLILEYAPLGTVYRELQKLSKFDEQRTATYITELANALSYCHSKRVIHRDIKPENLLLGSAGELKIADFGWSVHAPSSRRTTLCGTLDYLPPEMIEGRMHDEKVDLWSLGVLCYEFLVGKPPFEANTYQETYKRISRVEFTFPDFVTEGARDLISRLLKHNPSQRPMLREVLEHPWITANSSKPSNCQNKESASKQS

[8] = target: High affinity nerve growth factor receptor (Homo sapiens, UniProt P04629); type: functional;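 note: NTRK1 tested as one member of a kinome-wide profiling panel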
Chain of High affinity nerve growth factor receptor (P04629 whole entry): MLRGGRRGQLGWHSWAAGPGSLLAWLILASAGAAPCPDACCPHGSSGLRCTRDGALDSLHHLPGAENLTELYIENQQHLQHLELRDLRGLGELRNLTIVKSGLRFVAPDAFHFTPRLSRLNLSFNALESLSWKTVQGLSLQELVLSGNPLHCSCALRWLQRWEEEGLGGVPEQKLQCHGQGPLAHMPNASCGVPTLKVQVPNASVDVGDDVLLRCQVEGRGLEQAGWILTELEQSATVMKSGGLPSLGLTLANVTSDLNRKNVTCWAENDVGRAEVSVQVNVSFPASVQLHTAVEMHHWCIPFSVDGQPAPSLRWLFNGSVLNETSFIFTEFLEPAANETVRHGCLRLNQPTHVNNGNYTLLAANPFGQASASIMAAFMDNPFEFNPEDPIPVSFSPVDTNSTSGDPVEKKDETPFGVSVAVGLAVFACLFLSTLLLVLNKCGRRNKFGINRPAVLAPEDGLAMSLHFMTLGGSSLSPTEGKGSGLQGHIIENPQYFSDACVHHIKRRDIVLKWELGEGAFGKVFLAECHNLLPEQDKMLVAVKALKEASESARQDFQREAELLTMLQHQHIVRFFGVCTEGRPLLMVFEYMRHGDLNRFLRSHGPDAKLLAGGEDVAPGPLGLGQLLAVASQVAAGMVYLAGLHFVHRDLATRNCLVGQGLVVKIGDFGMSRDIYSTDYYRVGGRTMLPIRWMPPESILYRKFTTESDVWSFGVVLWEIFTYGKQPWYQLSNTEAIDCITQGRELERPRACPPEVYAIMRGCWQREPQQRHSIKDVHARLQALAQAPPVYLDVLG

[9] = NIH-3T3 fibroblast cytotoxicity, dose response, cytotoxicity control, cell-based, fluorescence, Alamar Blue, secondary assay (AID 2327); type: functional;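 note: NIH-3T3 mouse fibroblasts cultured with fluconazole at 8 µg/mL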
[10] = cells; type: functional, cell-based
[11] = alpha-synuclein stem-loop luciferase translation blockers – H4 neuroglioma cells, luminescence, confirmation (AID 1988); type: functional, cell-based
[12] = Luminescence Cell-Based Dose Response HTS to Identify Inhibitors of 5'UTR Stem-Loop Driven Prion Protein mRNA Translation in H4 Neuroglioblastoma Cells. [Related pubchem assays: 1827 (Project Summary), 1813 (Primary HTS)]; type: functional
[13] = target: Latent membrane protein 1 (Human herpesvirus 4 (strain B95-8), UniProt P03230); assay: LMP1 TES1 pathway selectivity over dsRED control – imaging, HEK293T, dual-color eGFP/dsRED, cherry-picks, selectivity assay for LMP1 NF-kB inhibitor project, dose response (AID 588398); type: functional, cell-based
Chain of Latent membrane protein 1 (P03230 whole entry): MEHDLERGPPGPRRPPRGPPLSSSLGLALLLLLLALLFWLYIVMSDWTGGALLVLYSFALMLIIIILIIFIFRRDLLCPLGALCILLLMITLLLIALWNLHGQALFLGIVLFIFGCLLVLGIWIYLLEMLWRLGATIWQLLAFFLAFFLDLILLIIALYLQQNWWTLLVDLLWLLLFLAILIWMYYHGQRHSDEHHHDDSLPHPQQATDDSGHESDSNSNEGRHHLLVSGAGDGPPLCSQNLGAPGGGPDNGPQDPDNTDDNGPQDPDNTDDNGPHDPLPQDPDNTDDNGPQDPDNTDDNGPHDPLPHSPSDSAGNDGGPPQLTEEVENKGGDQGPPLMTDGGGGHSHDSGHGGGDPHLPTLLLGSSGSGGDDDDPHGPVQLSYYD

[14] = luciferase reporter signal suppression in cells – H4 neuroglioma cells, luminescence, dose response (AID 1990); type: functional, cell-based
[15] = decrease of insulin promoter-GFP reporter – imaging, high-content screening, mouse beta cells (AID 1628); type: functional; settings: MIN6
[16] = test system: Vero; assay: cells; type: functional; settings: Chlorocebus sabaeus
[17] = test system: Streptococcus; assay: GAS UMAA2166 growth inhibition – luminescence, BacTiterGlo, counter-screen for streptokinase expression inhibitor project, dose response (AID 1915); type: functional, organism-based;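 note: potency for reduction of bacterial viability or growth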
[18] = DRD fibroblast viability loss – cell-based, non-viral oncogenic, luminescence, dose response (AID 1934); type: functional; settings: Homo sapiens
[19] = test system: BJ; assay: BJ-TERT fibroblast viability loss – cell-based, RAS-independent, luminescence, dose response (AID 1933); type: functional; settings: Homo sapiens
[20] = cells; type: functional, cell-based; remark: listed apart in the source
[21] = fluconazole-exposed Candida albicans growth modulators – fluorescence, retest, confirmation (AID 2467); type: functional, cell-based
[22] = test system: BJ; assay: cells; type: functional, cell-based; settings: Homo sapiens
[23] = MIN6 cell viability loss – mouse insulinoma, cytotoxicity control, dose response (AID 2122); type: functional;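 note: confirmatory high-throughput counterscreen run to flag cytotoxic compounds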
[24] = test system: BJ; assay: growth inhibition of engineered Ras-driven BJ cells – cell-based, alamar blue fluorescence, cherrypicked samples, dose response (AID 2631); type: functional; settings: Homo sapiens;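 note: confirmatory dose-response assay in RAS-dependent BJ fibroblasts engineered with TERT, LT and ST, with cytotoxicity read by fluorescence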
[25] = test system: Vero; assay: mammalian cell viability reduction – secondary assay, cytotoxicity control for West Nile virus antiviral project, dose response (AID 1650); type: functional; settings: Chlorocebus sabaeus
[26] = test system: Streptococcus sp. 'group A'; assay: Streptococcus pyogenes SK(-)GAS viability under kanamycin – luminescence, BacTiterGlo, confirmation, counter-screen for streptokinase expression inhibitor project, dose response (AID 1900); type: functional, organism-based
[27] = test system: BJ; assay: BJ-TERT-LT-ST fibroblast viability loss – cell-based, RAS-independent, luminescence, dose response (AID 1935); type: functional; settings: Homo sapiens;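 note: BJ fibroblasts immortalized with TERT plus LT and ST oncogenes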

In the case of `CN(C)CCN(C(=O)c1ccc(Cl)s1)c1nc2ccc(S(C)(=O)=O)cc2s1`, the IC50 [1] is reported as > 99 µM (inactive), the IC50 [2] is reported as > 99 µM (inactive) and the IC50 [3] is reported as > 99 µM (inactive). The IC50 [4] was > 99 µM (inactive).

For `CCOc1ccc(-c2nc(C(=O)N(C3CCCCC3)C3CCCCC3)co2)cc1OCC`, the EC50 [5] was > 50 µM (inactive) and the EC50 [6] was > 50 µM (inactive).

With `CCOC(=O)C(C(N)=O)C(=S)Nc1ccc(C)cc1` (configuration not stated) the Ki [7] was 0.0501 µM (active) and the Ki [8] was 5.01 µM (active).

In the case of `CCN(CC)c1ccc(/C=N/Nc2nc3ccccc3[nH]2)c(O)c1`, the EC50 [9] is reported as 22.6 µM (inconclusive), the EC50 [10] is reported as 115 µM (active) and the EC50 [11] is reported as 2.64 µM (active). The EC50 [12] was 8.71 µM (active), the AC50 [13] was 17.4 µM (active) and the EC50 [14] was 6.26 µM (active). The IC50 [15] was 2.45 µM (active), the CC50 [16] was 1.59 µM (active) and the EC50 [17] was 7.8 µM (active). For the same compound, the EC50 [18] was 1.37 µM (inconclusive), the EC50 [19] was 1.22 µM (active) and the EC50 [20] was 2.56 µM (active). For the same compound, the EC50 [21] was 1.42 µM (active), the EC50 [22] was 2.15 µM (active) and the IC50 [23] was 2.51 µM (active). The EC50 [24] was 0.571 µM (inconclusive), the CC50 [25] was 2.03 µM (active) and the EC50 [26] was 4.47 µM (active). The EC50 [27] was 1.37 µM (inconclusive).
